# Test results reported in US20180306775A1, “Portable Sampling Device and Method for Sampling Drug Substances From Exhaled Breath” (Sensa Bues AB, priority 2011, published 2018).
# Columns and labels:
# Assay type in all cases: in vivo, human
# [1] = Sampling of methadone from exhaled breath using electrostatic filter membrane (250 g/m2 non-woven layer, two carriers); details: for Methadone Range: range among subjects
# Procedure: (§1) Sampling of drugs of abuse from exhaled human breath using filter membrane.
# The tests were performed at 4 different occasions.
# [2] = Sampling of methadone in exhaled breath with constructed sampler (tubular section with baffles), two filter thicknesses; details: for Constructed sampler Methadone Range: n=5
# Source text: as §1
# The subject exhales through the tubular section comprising baffles to trapping large particles and saliva.
# [3] = Pre-study: sampling of methadone in breath using variable densities of the electrostatic filter membrane; details: exhaled breath, n=5; for Methadone Range: range among subjects
# Source text: as §1
# Type is the density of the non-woven layer at each test, the other headlines are the same as for table 1.
# [4] = filter diameter 32 mm, sampling time 1 min, n=6
# [5] = filter diameter 32 mm, sampling time 3 min, n=5 (one of 4 occasions)
# [6] = filter diameter 32 mm, sampling time 3 min, n=6 (one of 4 occasions)
# [7] = filter diameter 47 mm, sampling time 3 min, n=6
smiles,measurement,setting,value
"CCC(=O)C(CC(C)N(C)C)(c1ccccc1)c1ccccc1 (stereo not drawn) [Methadone, methadone]",Methadone pg/min mean ± SD,[1]; [4],204 ± 116 pg/min
same,Methadone Range,[1]; [4],21 to 326 pg/min
same,Methadone pg/min mean ± SD,[1]; [5],112 ± 89 pg/min
same,Methadone pg/min mean ± SD,[1]; [6],92 ± 62 pg/min
same,Methadone Range,[1]; [5],47 to 266 pg/min
same,Methadone Range,[1]; [6],28 to 199 pg/min
same,Methadone pg/min mean ± SD,[1]; [7],86 ± 52 pg/min
same,Methadone Range,[1]; [7],18 to 168 pg/min
same,Constructed sampler Methadone pg/min mean ± SD,"[2]; filter thickness 1, n=5",40 ± 27 pg/min
same,Constructed sampler Methadone Range,"[2]; filter thickness 1, range among subjects",12 to 85 pg/min
same,Constructed sampler Methadone pg/min mean ± SD,"[2]; filter thickness 2, n=5",42 ± 28 pg/min
same,Constructed sampler Methadone Range,"[2]; filter thickness 2, range among subjects",17 to 90 pg/min
same,Methadone Range,[3]; filter type 150 g/m2,24 to 216 pg/min
same,Methadone Range,[3]; filter type 250 g/m2,19 to 231 pg/min
same,Methadone Range,[3]; filter type 300 g/m2,20 to 287 pg/min
same,Methadone pg/min mean ± SD,[3]; filter type (density of non-woven layer) 150 g/m2,74.4 ± 80.4 pg/min
same,Methadone pg/min mean ± SD,[3]; filter type (density of non-woven layer) 250 g/m2,71.0 ± 90.1 pg/min
same,Methadone pg/min mean ± SD,[3]; filter type (density of non-woven layer) 300 g/m2,91.8 ± 110 pg/min
